A short description of data set [1]: Bio-availability: blood plasma level after injection of calves. The format is in vivo. As to the method: As a measure of bio-availability, the blood plasma level of the compounds is determined on several days after the injection of calves with, in each case, 1 mg of compound/kg body weight.
The nature of data set [2]: Physico-chemical characteristics: solubilities. The class given is physicochemical.
For another data set, the system named is Ctenocephalides felis. The data set can be described thus: Action against fleas (infested dogs, oral). The format is in vivo, Ctenocephalides felis (on dogs). The settings on record: 50 mg kg-1 day-1, dogs. The procedure:
Dogs having the proven ability to support a flea population permanently are infested with 100 cat fleas Ctenocephalides felis Bouche. The infested dogs are then divided into 3 groups of 2 animals. […] The test compound is administered in the form of an aqueous suspension (by means of a syringe). The third group of animals is not treated and serves as a control group.
After 3, 8 and 10 days, the eggs of the fleas are collected from the paper which is under the dog cages. The eggs are counted, placed on a medium suitable for the culture of larvae and incubated. A count is made of the resulting pupae and fully grown fleas.

Data set [3] relates to Lucilia sericata and L. cuprina. The experiment in a line: Action against blowflies. The format is in vivo. The settings on record: 6.4 ppm, after at the most 96 h. The procedure:
Freshly deposited eggs of the blowfly species Lucilia sericata and L. cuprina are placed in small portions (30 to 50 eggs) into each of a number of test tubes in which 4 ml of nutrient medium have been mixed with 1 ml of test solution at the intermediate dilution of the active ingredient necessary to obtain the final concentration. After inoculating the culture medium, the test tubes are sealed with cotton wool plugs and are then incubated in an incubator at 30° C. for 4 days. In the untreated medium, larvae about 1 cm in length (stage 3) have developed by the end of this 4-day period. When a compound is active the larvae are by the end of this period either dead or distinctly retarded. Four tests are carried out simultaneously with concentrations of 100, 40, 16 and 6.4 ppm, respectively. The activity is measured according to the lowest concentration that is still fully active (LC 100).

[4] abbreviates: hexane, organic solvent or mixture, read-out: solubility in hexane.
The mark [5] stands for this setting: water, read-out: solubility in water.

≈ marks a conversion by molar mass, not a printed value. Where two headings read alike, the source gives them in different places.

What is called solubility is the concentration that dissolves in the medium under given conditions. For the compound `O=C(NC(=O)c1c(F)cccc1F)Nc1ccc(Cl)c(Oc2ncc(C(F)(F)F)cc2Cl)c1` [(A)], the concentration at 24 h was determined as 7 ng/mL in data set [1] (bovine, plasma, 1 mg/kg, day 1, calf 1, 1 mg/kg injection) and 5 ng/mL in data set [1] (bovine, plasma, 1 mg/kg, day 1, calf 2, 1 mg/kg injection). Besides, the concentration at 168 h in data set [1] (bovine, plasma, 1 mg/kg, day 7, calf 1, 1 mg/kg injection) was determined as 3 ng/mL; in data set [1] (bovine, plasma, 1 mg/kg, day 7, calf 2, 1 mg/kg injection), 4 ng/mL. Also, the concentration at 336 h in data set [1] (bovine, plasma, 1 mg/kg, day 14, calf 1, 1 mg/kg injection) was 4 ng/mL; in data set [1] (bovine, plasma, 1 mg/kg, day 14, calf 2, 1 mg/kg injection) it was 9 ng/mL. Further, the concentration at 504 h is 7 ng/mL in data set [1] (bovine, plasma, 1 mg/kg, day 21, calf 1, 1 mg/kg injection) and 10 ng/mL in data set [1] (bovine, plasma, 1 mg/kg, day 21, calf 2, 1 mg/kg injection). The concentration at 672 h in data set [1] (bovine, plasma, 1 mg/kg, day 28, calf 1, 1 mg/kg injection) came out at 6 ng/mL; in data set [1] (bovine, plasma, 1 mg/kg, day 28, calf 2, 1 mg/kg injection), 5 ng/mL. In addition, the concentration at 840 h was determined as 6 ng/mL in data set [1] (bovine, plasma, 1 mg/kg, day 35, calf 1, 1 mg/kg injection) and 10 ng/mL in data set [1] (bovine, plasma, 1 mg/kg, day 35, calf 2, 1 mg/kg injection). Also, the concentration at 1008 h was determined as 9 ng/mL in data set [1] (bovine, plasma, 1 mg/kg, day 42, calf 1, 1 mg/kg injection) and 6 ng/mL in data set [1] (bovine, plasma, 1 mg/kg, day 42, calf 2, 1 mg/kg injection). Moreover, the concentration at 1176 h was 4 ng/mL in data set [1] (bovine, plasma, 1 mg/kg, day 49, calf 1, 1 mg/kg injection) and 4 ng/mL in data set [1] (bovine, plasma, 1 mg/kg, day 49, calf 2, 1 mg/kg injection). Also, the concentration at 1344 h turned out to be 5 ng/mL in data set [1] (bovine, plasma, 1 mg/kg, day 56, calf 1, 1 mg/kg injection) and 5 ng/mL in data set [1] (bovine, plasma, 1 mg/kg, day 56, calf 2, 1 mg/kg injection). The concentration at 1512 h in data set [1] (bovine, plasma, 1 mg/kg, day 63, calf 1, 1 mg/kg injection) worked out at 4 ng/mL; in data set [1] (bovine, plasma, 1 mg/kg, day 63, calf 2, 1 mg/kg injection), 6 ng/mL. Besides, the concentration at 1680 h was found to be 7 ng/mL in data set [1] (bovine, plasma, 1 mg/kg, day 70, calf 1, 1 mg/kg injection) and 5 ng/mL in data set [1] (bovine, plasma, 1 mg/kg, day 70, calf 2, 1 mg/kg injection). Besides, the concentration at 1848 h in data set [1] (bovine, plasma, 1 mg/kg, day 77, calf 1, 1 mg/kg injection) was 5 ng/mL; in data set [1] (bovine, plasma, 1 mg/kg, day 77, calf 2, 1 mg/kg injection), 2 ng/mL. Further, the concentration at 2016 h in data set [1] (bovine, plasma, 1 mg/kg, day 84, calf 1, 1 mg/kg injection) is 7 ng/mL; in data set [1] (bovine, plasma, 1 mg/kg, day 84, calf 2, 1 mg/kg injection) it was 7 ng/mL. The Cmax in data set [1] (bovine, plasma, calves, injection, 1 mg/kg, read-out: maximum concentration in the blood (plasma)) lay within 7 to 10 ng/mL. The “persistence of blood plasma level” value in data set [1] (level of 7 to 10 ppb, calves, 1 mg/kg) is “maintained over a relatively long period”. Moreover, the solubility in data set [2] (setting [4]) amounted to 3 µg/mL (≈ 5.93 µM); in data set [2] (setting [5]) it was 0.02 µg/mL (≈ 0.0395 µM). Besides, in data set [2], the solubility in isopropanol came out at 0.09%. Moreover, the solubility in n-octanol in data set [2] was found to be 0.065%.

On to `Nc1ccc(F)c(C(=O)NC(=O)Nc2ccc(Cl)c(Oc3ncc(C(F)(F)F)cc3Cl)c2)c1F` [Compound 1.1, N-[3-(3-chloro-5-trifluoromethylpyridyl-2-oxy)-4-chlorophenyl]-N'-[2,6-difluoro-3-aminobenzoyl]-urea], for which the activity result with Ctenocephalides felis was “more than 50%”. Further, the concentration at 24 h in data set [1] (bovine, plasma, 1 mg/kg, day 1, calf 3, 1 mg/kg injection) stood at 126 ng/mL; in data set [1] (bovine, plasma, 1 mg/kg, day 1, calf 4, 1 mg/kg injection), 185 ng/mL. In addition, the concentration at 168 h in data set [1] (bovine, plasma, 1 mg/kg, day 7, calf 3, 1 mg/kg injection) worked out at 48 ng/mL; in data set [1] (bovine, plasma, 1 mg/kg, day 7, calf 4, 1 mg/kg injection), 66 ng/mL. Besides, the concentration at 336 h in data set [1] (bovine, plasma, 1 mg/kg, day 14, calf 3, 1 mg/kg injection) was found to be 16 ng/mL; in data set [1] (bovine, plasma, 1 mg/kg, day 14, calf 4, 1 mg/kg injection), 27 ng/mL. The concentration at 504 h turned out to be 10 ng/mL in data set [1] (bovine, plasma, 1 mg/kg, day 21, calf 3, 1 mg/kg injection) and 12 ng/mL in data set [1] (bovine, plasma, 1 mg/kg, day 21, calf 4, 1 mg/kg injection). The concentration at 672 h in data set [1] (bovine, plasma, 1 mg/kg, day 28, calf 3, 1 mg/kg injection) stood at 5 ng/mL; in data set [1] (bovine, plasma, 1 mg/kg, day 28, calf 4, 1 mg/kg injection), 6 ng/mL. The concentration at 840 h was determined as 2 ng/mL in data set [1] (bovine, plasma, 1 mg/kg, day 35, calf 3, 1 mg/kg injection) and 4 ng/mL in data set [1] (bovine, plasma, 1 mg/kg, day 35, calf 4, 1 mg/kg injection). Besides, the “bio-availability compared with (A)” value in data set [1] (calves, injection, 1 mg/kg) is recorded as “distinctly better bio-availability than does compound (A)”. In data set [1] (calves, injection, 1 mg/kg), the “excretion compared with (A)” value was “excreted considerably more rapidly than (A)”. The “reaching of high concentration in the blood plasma” value in data set [1] (calves, injection, 1 mg/kg) is recorded as “a high concentration in the blood plasma is reached very rapidly”. The Blood plasma level is recorded as 0 ppb in data set [1] (day 42, calf 3, 1 mg/kg injection); 0 ppb in data set [1] (day 42, calf 4, 1 mg/kg injection); 0 ppb in data set [1] (day 49, calf 3, 1 mg/kg injection); 0 ppb in data set [1] (day 49, calf 4, 1 mg/kg injection); 0 ppb in data set [1] (day 56, calf 3, 1 mg/kg injection); 0 ppb in data set [1] (day 56, calf 4, 1 mg/kg injection). Further, the Blood plasma level stood at 0 ppb in data set [1] (day 63, calf 4, 1 mg/kg injection); 0 ppb in data set [1] (day 70, calf 4, 1 mg/kg injection); 0 ppb in data set [1] (day 77, calf 4, 1 mg/kg injection); 0 ppb in data set [1] (day 84, calf 4, 1 mg/kg injection). Further, the “blood plasma values compared with (A)” value in data set [1] (very rapidly after administration, calves, 1 mg/kg) is reported as “higher blood plasma values”. Further, the results for the solubility in data set [2] (setting [4]) and in data set [2] (setting [5]) were roughly 60 µg/mL (≈ 115 µM) and 0.11 µg/mL (≈ 0.211 µM), respectively. Besides, in data set [2], the solubility in isopropanol amounted to 0.30%. Further, the solubility in n-octanol in data set [2] worked out at 0.56%.

With `Nc1ccc(F)c(C(=O)NC(=O)Nc2ccc(F)c(Oc3ncc(C(F)(F)F)cc3Cl)c2)c1F` [Compound 1.6, N-[3-(3-chloro-5-trifluoromethylpyridyl-2-oxy)-4-fluorophenyl]-N'-[2,6-difluoro-3-aminobenzoyl]-urea], the activity entry with Ctenocephalides felis is reported as “more than 50%”.

For the compound `Nc1ccc(F)c(C(=O)NC(=O)Nc2ccc(Cl)c(Oc3ncc(C(F)(F)C(F)(Cl)Cl)cc3Cl)c2)c1F` [Compound 1.9], the “mortality of the larvae” value in data set [3] is given as 100%.

Consider `Nc1ccc(F)c(C(=O)NC(=O)Nc2cccc(Sc3ncc(C(F)(F)F)cc3Cl)c2)c1F` [Compound 1.12], for which the activity result in the data set on Ctenocephalides felis is reported as “more than 50%”.

The values are drawn from patent US4946854A, “3-aminobenzoylphenylureas useful for controlling parasites and insects that attack domestic animals and livestock” (priority 1987, dated 1990).
